This note sets out measurements from patent publication US20190216725A1, “DRUG DELIVERY SYSTEM FOR THE DELIVERY OF INTEGRASE INHIBITORS” (MERCK SHARP & DOHME CORP., priority 2016, published 2019).

The data set is described as follows: maximum solubility in PBS + solutol. Type of data set: physicochemical. The conditions noted are these: aqueous with cosolvent or surfactant or cyclodextrin.

Each structure is given as a SMILES string.

As a reminder, the solubility is the concentration that dissolves in the medium under given conditions. Consider `CCN1C[C@@H]2C[C@@H](OC)c3c(C(=O)NCc4ccc(F)cc4F)c(=O)c(O)c(n32)C1=O` [active ingredient 2, (3aS,5R)-N-(2,4-difluorobenzyl)-2-ethyl-8-hydroxy-5-methoxy-1,7-dioxo-2,3,3a,4,5,7-hexahydro-1H-pyrazino[2,1,6-cd]indolizine-6-carboxamide], for which the solubility (in PBS+2 wt % solutol) amounted to 310 µg/mL. With `C[C@]12CCCO[C@H]1Cn1cc(C(=O)NCc3ccc(F)cc3F)c(=O)c(O)c1C2=O` [active ingredient 1, (4aS,11aR)-N-(2,4-difluorobenzyl)-6-hydroxy-4a-methyl-5,7-dioxo-2,3,4,4a,5,7,11,11a-octahydropyrano[3,2-b]quinolizine-8-carboxamide], the solubility runs as follows: (in PBS+2 wt % solutol) 150 µg/mL; (in PBS+5 wt % solutol) 260 µg/mL.
